For data set [1], the system named is Luciferase-tagged OVCAR8 cells. Kind of data set: Viability of luciferase-tagged OVCAR8 cells in combination with radiation or paclitaxel. Format: cell-based. How it is done:
FIG. 5, panels A-E: illustrates the sensitizing effect of SU093 on the viability of luciferase-tagged OVCAR8 cells in combination with radiation and chemotherapy treatment. FIG. 5, panel A graphs cells that were pre-treated with 0, 0.5 and 1 nM SU093 for 24 h followed by 0, 5 & 10 Gy radiation treatment and incubated for 96 h. FIG. 5, panel B illustrates cell cycle analysis of SU093 and radiation combination treatment in OVCAR8. FIG. 5, panel C illustrates the effect of SU093 on OVCAR8 cells in hypoxic condition (0.5% O2) FIG. 5, panel D graphs hypoxic cells that were pre-treated with SU093 for 24 h followed by 5 and 10 Gy radiation.
It has been previously established that GBP1 expression has a definitive role in the resistance towards radiation therapy and taxane-based chemotherapy. The GBP1 inhibitor SU093 was tested in combination with radiation and paclitaxel (a well known taxane-based chemotherapeutic drug) for its potential in overcoming radiation therapy and taxane resistance. […] A cell cycle analysis experiment for radiation was performed with SU093 and combination treatment (FIG. 5, panel B). […] One of the mechanisms through which a drug can sensitize the effect of radiation is its ability to block G2/M phase of the cell cycle (Leonard, C. E.; Chan, D. C.; Chou, T. C.; Kumar, R.; Bunn, P. A., Paclitaxel enhances in vitro radiosensitivity of squamous carcinoma cell lines of the head and neck. Cancer Research 1996, 56 (22), 5198-5204). G2/M is the most radiosensitive phase in the cell cycle and arresting the cell population in this phase would likely sensitize them to the next cycle of radiation and enhance cell death (Pawlik, T. M.; Keyomarsi, K., Role of cell cycle in mediating sensitivity to radiotherapy. International Journal of Radiation Oncology Biology Physics 2004, 59 (4), 928-942; Nambiar, D. K.; Rajamani, P.; Deep, G.; Jain, A. K.; Agarwal, R.; Singh, R. P., Silibinin Preferentially Radiosensitizes Prostate Cancer by Inhibiting DNA Repair Signaling. Molecular Cancer Therapeutics 2015, 14 (12), 2722-2734). […] Bearing in mind that solid tumors create a hypoxic microenvironment, these findings provided a very compelling case for the clinical application of the subject GBP1 inhibitors as a treatment for re-sensitizing radiation therapy in refractory cancers.
(§1) The cytotoxic effect of SU093 and paclitaxel combination treatment was also studied (FIG. 5, panel E).

In a further data set the test system is DU145. Kind of data set: MTT cytotoxicity assay, DU145. The data set is classed as cell-based. The conditions noted are these: Homo sapiens, DU-145, Prostate. From the text: (§2) It was observed that SU093 was highly cytotoxic for all cell lines tested with IC50 values in the nanomolar range.
(Formazan colour is commonly taken as a measure of viable cells.)

The subject of another data set is A549. The experiment in a line: MTT cytotoxicity assay, A549. Format: cell-based. The conditions noted are these: Homo sapiens, Lung.
Source text: as §2

The subject of a further data set is HCT116. Kind of data set: MTT cytotoxicity assay, HCT116. Format: cell-based. The conditions noted are these: Homo sapiens, HCT-116, Colorectal.
Source text: as §2

Another data set concerns MCF7. The experiment in a line: MTT cytotoxicity assay, MCF7. The conditions noted are these: Homo sapiens, Breast. Format: cell-based.
Source text: as §2

The test system of data set [2] is OVCAR8 cells. The experiment in a line: Active mitochondrial mass (MitoTracker Red CMXRos) in OVCAR8 cells. The data set is classed as cell-based. From the text:
(§3) FIG. 4, panel A illustrates a histogram of cell cycle distribution of propidium iodide (PI)-stained cells. […] FIG. 4, panel C illustrates the effect of SU093 on cell cycle and cell death regulators analyzed by immunostaining. FIG. 4, panel D illustrates mitochondria stained with MitoTracker Red CMXRos and visualized by confocal microscopy indicating mitochondrial dysfunction in OVCAR8 cells. FIG. 4, panel E illustrates the effect of SU093 on active mitochondrial mass in OVCAR8 cells.
(§4) Furthermore, OVCAR8 cells with overexpressed (OV) and knockdown (KD) of GBP1 gene were created (FIG. 3, panel D) and cell viability experiments were performed on GBP1-WT (wild-type), GBP1-OV and GBP1-KD OVCAR8 cells at different doses of SU093.

The next data set has as its system OVCAR8-PRes cells. The experiment in a line: Growth inhibition of paclitaxel-resistant OVCAR8-PRes cells. The data set is classed as cell-based.
Source text: as §1

The subject of the next data set is SSC-90. Kind of data set: MTT cytotoxicity assay, SSC-90. The data set is classed as cell-based. The following applies: Head and Neck, SSC-90, MTT assay.
Source text: as §2

A further data set has as its system ID-8 tumor xenograft. Kind of data set: Ovarian ID-8 tumor xenograft in C57BL6 mice. The data set is classed as in vivo. From the text: An immunocompetent syngeneic mouse model was used to evaluate in vivo antitumor effect of SU093 and SU056 (also referred to herein as Compound (I)) for ovarian cancer. C57BL6 female mice (n=5/group) were subcutaneously injected in the right flank with 5×10^6 ID-8 cells mixed with matrigel. From the day following xenograft implantation, mice were monitored regularly for tumor growth and once the tumors reached approximately 100 mm^3, the mice were randomly divided into three groups and respective treatments were given.
Group I (vehicle control): 100 μl of 10% PEG300 (w/v) in saline;
Group II: mice treated with SU093 (20 mg/kg); and
Group III: mice treated with SU056 (20 mg/kg).
Doses were administered intraperitoneally (IP) for 7 days/week for 42 days and the mice were sacrificed on day 43. Tumor sizes were measured twice weekly using digital caliper and tumor volume was calculated by the formula: 0.5236 L1 (L2)^2, where L1 is long diameter, and L2 is short diameter.

Data set [3] in a line: Maximum tolerable dose study, 14 days IP. Format: in vivo, mice. How it is done: FIG. 7, panel A illustrates in vivo PK studies, C57BL/6 mice. Drug concentration in plasma was quantified at different time points using LCMS after a single IP injection of SU093. FIG. 7, panel B illustrates the drug concentration in harvested ovaries and liver of C57BL/6 mice after 14 days of administration with SU093 (100 mg/kg) by daily IP injection.
To determine the maximum tolerable dose of an exemplary GBP1 inhibitor, SU093 was administered to C57BL6 female mice (n=10) intraperitoneally at 100 mg/kg for 14 days. […] At the end of the 14th day, mice were sacrificed and organs were harvested.

In data set [4] the test system is OVCAR8 cells. Kind of data set: Cell cycle analysis and cell cycle/cell death regulators in OVCAR8 cells. The data set is classed as cell-based.
Source text: as §3, §4
It has been previously established that GBP1 expression has a definitive role in the resistance towards radiation therapy and taxane-based chemotherapy. The GBP1 inhibitor SU093 was tested in combination with radiation and paclitaxel (a well known taxane-based chemotherapeutic drug) for its potential in overcoming radiation therapy and taxane resistance. […] A cell cycle analysis experiment for radiation was performed with SU093 and combination treatment (FIG. 5, panel B). […] One of the mechanisms through which a drug can sensitize the effect of radiation is its ability to block G2/M phase of the cell cycle (Leonard, C. E.; Chan, D. C.; Chou, T. C.; Kumar, R.; Bunn, P. A., Paclitaxel enhances in vitro radiosensitivity of squamous carcinoma cell lines of the head and neck. Cancer Research 1996, 56 (22), 5198-5204). […]

Where [5] appears, read: ID-8, 20 mg/kg IP daily, 42 days, vs control.

Experimental findings from patent US11771692B2, “N-hydroxyethyl didehydroazapodophyllotoxins as GBP1 inhibitors and methods of overcoming treatment resistance in cancer” (The Board of Trustees of the Leland Stanford Junior …, priority 2018, dated 2023) are described below.

A word on the IC50: it is the point on the concentration scale where inhibition reaches its midpoint. A lower IC50 goes with inhibition by little substance. A word on the inhibition: it is the percentage by which the read-out fell short of the control.

“Also recorded” adds a separate entry of the source. Like-named read-outs stand apart in the source and are kept apart here.

As to `COc1ccc2c(c1)N(CCO)C1=C(C(=O)OC1)C2c1ccccc1` (centres unmarked) [SU093], the “cell viability, pretreatment with SU093 then radiation” value in [1] (5 and 10 Gy radiation) is reported as “significant synergistic effect”. Moreover, in [1] (OVCAR8, hypoxic (0.5% O2)), the “cytotoxicity in hypoxic conditions” value is recorded as “intrinsic cytotoxic effects”. The “cytotoxic effect of SU093 and paclitaxel combination” value in [1] (SU093 0.5 nM 24 h then paclitaxel 1, 5, 10 nM) is “synergistic cytotoxic effect; also recorded: enhanced cytotoxic effect as compared to paclitaxel alone”. Further, in data set [1] (hypoxic OVCAR8, SU093 plus 5 and 10 Gy), the “cell death, co-treatment with radiotherapy in hypoxia” value is “significantly potentiated cell death”. For the same molecule, the IC50 in the data set on DU145 worked out at 1.12 nM; with A549, 2.48 nM; with HCT116, 1.24 nM; with MCF7, 6.23 nM; in the data set on SSC-90, 3.23 nM. For the same molecule, the active mitochondrial mass result in the data set on OVCAR8 cells [2] is listed as “significantly diminished active mitochondrial mass”. For the same molecule, the inhibition at 0.015 µM with OVCAR8-PRes cells (15 nM SU093, read-out: inhibition in the cell growth) came to 50%; in the data set with OVCAR8-PRes cells (SU093 (15 nM) and paclitaxel (2 μM), read-out: growth inhibition, combination treatment), 80%. The “gross sign of toxicity (body weight and diet consumption)” value in the data set with ID-8 tumor xenograft (20 mg/kg IP daily, 42 days) is on record as “did not show any gross sign of toxicity”. For the same molecule, the “liver toxicity parameters (AST, ALT, Alkaline phosphatase)” value in the data set with ID-8 tumor xenograft (ELISA, end of 42 days, vs control) is given as “No significant difference”. Moreover, the “reduction in tumor volume” value in the data set with ID-8 tumor xenograft (setting [5]) is 37.5%. The molecule further returned a tumor weight decreased in the data set on ID-8 tumor xenograft (setting [5]) of 39.65%. In the data set on ID-8 tumor xenograft (ID-8, 20 mg/kg IP daily, end of 6 weeks), this molecule came in with a tumor volume/mouse of 318.81±26.09 mm^3. The CHEM-22 panel analysis result in [3] (100 mg/kg for 14 days) is given as “only acute liver toxicity”. Also, in data set [3] (C57BL6 female mice, 100 mg/kg IP, 14 days), the “weight loss or sign of toxicity” value is on record as “no significant weight loss or sign of toxicity”. Besides, in data set [3] (female, C57BL/6, mouse, ovaries, intraperitoneal, 100 mg/kg daily IP, after 14 days, LCMS, read-out: concentration in the target organ (ovaries)), the concentration at 14 days was found to be 3730 ng/mL. In addition, the cell cycle distribution result in the data set with OVCAR8 cells [4] (OVCAR8, SU093 alone) is given as “G1 phase arrest; also recorded: progression from G1 to S phase was markedly inhibited”. For the same molecule, in the data set with OVCAR8 cells [4] (OVCAR8, combination with radiation), the “cell cycle distribution, combination of SU093 and radiation” value is reported as “G2/M phase arrest leading to apoptosis; also recorded: G2/M phase arrest leading to apoptotic cell death”. The “cell cycle and cell death regulators” value in the data set with OVCAR8 cells [4] (OVCAR8, cyclin D1, CDK2, Bax) is “reduction in cyclin D1 and CDK2 levels and elevation of the cell death regulator Bax”.
